The values below come from US12304890B2, “R-type pyridyloxycarboxylic acid, salt and ester derivative thereof, and preparation method therefor, and herbicidal composition and application thereof” (Qingdao Kingagroot Chemical Compound Co., Ltd., priority 2018, dated 2025).

Holding throughout (type): in vivo
One assay deals with Digitaria sanguinalis. Kind of assay: Post-emergence test experiment, Digitaria sanguinalis. To be noted: 1000 g a.i./ha, 3 weeks in greenhouse, fresh weight inhibition. In outline: (§1)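 Seeds sown under 0.5-2 cm soil; sprayed post-emergence at 2-3 leaves with acetone/tween-80 solution plus 1.5 L/ha methyl oleate EC; greenhouse 3 wk; % fresh weight inhibition.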
The test system of assay [1] is Monocotyledonous and dicotyledonous weed seeds and main crop seeds. Kind of assay: Post-emergence test experiment, other weeds and crops (Table 4, 1000 g a.i./ha). As to conditions: 3 weeks in greenhouse, fresh weight inhibition. In short, it runs like this: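 Growth inhibition is scored on fresh weight. Spray solutions were made in acetone with tween-80, diluted in water, plus 1.5 L/ha methyl oleate emulsible concentrate. Plants from greenhouse-grown weed and crop seeds were treated post-emergence at 2-3 leaves, 2 weeks after sowing.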

The next assay deals with Echinochloa crusgalli. Kind of assay: Post-emergence test experiment, Echinochloa crusgalli. To be noted: 1000 g a.i./ha, 3 weeks in greenhouse, fresh weight inhibition. In short, it runs like this: as §1

Each structure is given as a SMILES string.

As to `CCCC(C)CSC(=O)[C@@H](C)Oc1nc(F)c(Cl)c(N)c1Cl` (stereo partly drawn) [Compound 2-104], the “Activity level (growth inhibition rate), Digitaria sanguinalis” value in the assay with Digitaria sanguinalis is 5 (Level 5: the growth inhibition rate is greater than 85%). In assay [1], the “Activity level (growth inhibition rate), Abutilon theophrasti Medic.” value is 5 (Level 5: the growth inhibition rate is greater than 85%); the “Activity level (growth inhibition rate), Galium aparine” value is on record as 5 (Level 5: the growth inhibition rate is greater than 85%); the “Activity level (growth inhibition rate), Monochoria Vaginalis” value was 5 (Level 5: the growth inhibition rate is greater than 85%). Further, the “Activity level (growth inhibition rate), Echinochloa crusgalli” value in the assay with Echinochloa crusgalli is listed as 5 (Level 5: the growth inhibition rate is greater than 85%).
`CC(Oc1nc(F)c(Cl)c(N)c1Cl)C(=O)[S-].C[N+](C)(C)C` (stereo not drawn) [Compound 2-4]: the “Activity level (growth inhibition rate), Digitaria sanguinalis” value in the assay with Digitaria sanguinalis is given as 5 (Level 5: the growth inhibition rate is greater than 85%). Besides, in assay [1], the “Activity level (growth inhibition rate), Abutilon theophrasti Medic.” value is on record as 5 (Level 5: the growth inhibition rate is greater than 85%); the “Activity level (growth inhibition rate), Galium aparine” value is reported as 5 (Level 5: the growth inhibition rate is greater than 85%); the “Activity level (growth inhibition rate), Monochoria Vaginalis” value was 5 (Level 5: the growth inhibition rate is greater than 85%). Besides, in the assay on Echinochloa crusgalli, the “Activity level (growth inhibition rate), Echinochloa crusgalli” value is listed as 5 (Level 5: the growth inhibition rate is greater than 85%).
For the compound `CC(C)CCCSC(=O)[C@@H](C)Oc1nc(F)c(Cl)c(N)c1Cl` [Compound 2-108], in the assay with Digitaria sanguinalis, the “Activity level (growth inhibition rate), Digitaria sanguinalis” value is recorded as 5 (Level 5: the growth inhibition rate is greater than 85%). Moreover, in assay [1], the “Activity level (growth inhibition rate), Abutilon theophrasti Medic.” value is 5 (Level 5: the growth inhibition rate is greater than 85%); the “Activity level (growth inhibition rate), Galium aparine” value was 5 (Level 5: the growth inhibition rate is greater than 85%); the “Activity level (growth inhibition rate), Monochoria Vaginalis” value is 5 (Level 5: the growth inhibition rate is greater than 85%). Also, the “Activity level (growth inhibition rate), Echinochloa crusgalli” value in the assay on Echinochloa crusgalli is reported as 5 (Level 5: the growth inhibition rate is greater than 85%).
Regarding `Cc1cccc(COC(=O)C(C)Oc2nc(F)c(Cl)c(N)c2Cl)c1` (stereo not drawn) [Compound 2-304], the “Activity level (growth inhibition rate), Digitaria sanguinalis” value in the assay on Digitaria sanguinalis is given as 5 (Level 5: the growth inhibition rate is greater than 85%). In assay [1], the “Activity level (growth inhibition rate), Abutilon theophrasti Medic.” value is 5 (Level 5: the growth inhibition rate is greater than 85%); the “Activity level (growth inhibition rate), Galium aparine” value is listed as 5 (Level 5: the growth inhibition rate is greater than 85%); the “Activity level (growth inhibition rate), Monochoria Vaginalis” value is 5 (Level 5: the growth inhibition rate is greater than 85%). Moreover, in the assay with Echinochloa crusgalli, the “Activity level (growth inhibition rate), Echinochloa crusgalli” value is reported as 5 (Level 5: the growth inhibition rate is greater than 85%).
Turning to `C[C@@H](Oc1nc(F)c(Cl)c(N)c1Cl)C(=O)SCc1ccc(C#N)cc1` [Compound 2-338], the “Activity level (growth inhibition rate), Digitaria sanguinalis” value in the assay with Digitaria sanguinalis is given as 5 (Level 5: the growth inhibition rate is greater than 85%). In assay [1], the “Activity level (growth inhibition rate), Abutilon theophrasti Medic.” value is recorded as 5 (Level 5: the growth inhibition rate is greater than 85%); the “Activity level (growth inhibition rate), Galium aparine” value was 5 (Level 5: the growth inhibition rate is greater than 85%); the “Activity level (growth inhibition rate), Monochoria Vaginalis” value is 5 (Level 5: the growth inhibition rate is greater than 85%). In addition, the “Activity level (growth inhibition rate), Echinochloa crusgalli” value in the assay with Echinochloa crusgalli is 5 (Level 5: the growth inhibition rate is greater than 85%).
Take `CC(Oc1nc(F)c(Cl)c(N)c1Cl)C(=O)SCc1ccccc1C(F)(F)F` (stereo not drawn) [Compound 2-328]: the “Activity level (growth inhibition rate), Digitaria sanguinalis” value in the assay with Digitaria sanguinalis is listed as 5 (Level 5: the growth inhibition rate is greater than 85%). Moreover, in assay [1], the “Activity level (growth inhibition rate), Abutilon theophrasti Medic.” value is listed as 5 (Level 5: the growth inhibition rate is greater than 85%); the “Activity level (growth inhibition rate), Galium aparine” value is on record as 5 (Level 5: the growth inhibition rate is greater than 85%); the “Activity level (growth inhibition rate), Monochoria Vaginalis” value is listed as 5 (Level 5: the growth inhibition rate is greater than 85%). In addition, the “Activity level (growth inhibition rate), Echinochloa crusgalli” value in the assay on Echinochloa crusgalli is given as 5 (Level 5: the growth inhibition rate is greater than 85%).
